The values below come from patent US8546383B2, “Chiral fused [1,2]imidazo[4,5-c] ring compounds” (3M Innovative Properties Company, priority 2004, dated 2013).

Counter-ions that a name gives are not always drawn. Bounds are passed on as bounds.

Broadly, the melting point is the temperature of the solid-liquid transition. Compound `CC(C)(O)[C@@H]1COCc2nc3c(N)nc4ccccc4c3n21` (as salt: hydrochloride) [Example 31] registered a melting point of 218 to 219 °C.
Take `Nc1nc2ccccc2c2c1nc1n2[C@@H](Cc2ccc(O)cc2)COC1` (as salt: hydrochloride) [Example 48, 4-{[(11S)-6-Amino-10,11-dihydro-8H-[1,4]oxazino[4′,3′:1,2]imidazo[4,5-c]quinolin-11-yl]methyl}phenol]: the melting point is > 240 °C (dec.).
Regarding `Nc1nc2ccccc2c2c1nc1n2[C@H](Cc2ccccc2)COC1` (hydrate or solvate) [Example 29], the melting point was in the range of 170 to 177 °C.
As for `CC1COCc2nc3c(N)nc4ccc(OCc5ccccc5)cc4c3n21` (stereo in doubt) [Example 18, (11R)-2-(Benzyloxy)-11-methyl-10,11-dihydro-8H-[1,4]oxazino[4′,3′:1,2]imidazo[4,5-c]quinolin-6-amine], the melting point is 100 to 120 °C.
Under `CC(C)[C@H]1COCc2nc3c(N)nc4ccccc4c3n21` [Example 1, (11S)-1′-Isopropyl-10,11-dihydro-8H-[1,4]oxazino[4′,3′:1,2]imidazo[4,5-c]quinolin-6-amine] stands 249 to 250 °C; under `CC(C)[C@H]1COCc2nc3c(N)nc4c(c3n21)CCCC4` [Example 2, (11S)-11-Isopropyl-2,3,4,8,10,11-hexahydro-1H-[1,4]oxazino[4′,3′:1,2]imidazo[4,5-c]quinolin-6-amine], 158 to 160 °C; under `CC(C)[C@H]1COCc2nc3c(N)nc4cc(OCc5ccccc5)ccc4c3n21` [Example 3, (11S)-3-(Benzyloxy)-11-isopropyl-10,11-dihydro-8H-[1,4]oxazino[4′,3′:1,2]imidazo[4,5-c]quinolin-6-amine], 227 to 229 °C.
Compound `CC(C)[C@H]1COCc2nc3c(N)nc4cc(O)ccc4c3n21` [Example 4, (11S)-6-Amino-11-isopropyl-10,11-dihydro-8H-[1,4]oxazino[4′,3′:1,2]imidazo[4,5-c]quinolin-3-ol] gave a melting point of 210 to 215 °C.
Regarding `C[C@H]1COCc2nc3c(N)nc4ccccc4c3n21` [Example 5, (11S)-11-Methyl-10,11-dihydro-8H-[1,4]oxazino[4′,3′:1,2]imidazo[4,5-c]quinolin-6-amine], the melting point was in the range of 280 to 282 °C.
`C[C@H]1COCc2nc3c(N)nc4c(c3n21)CCCC4` [Example 6, (11S)-11-Methyl-2,3,4,8,10,11-hexahydro-1H-[1,4]oxazino[4′,3′:1,2]imidazo[4,5-c]quinolin-6-amine] displayed a melting point of 209 to 211 °C.
Turning to `C[C@H]1COCc2nc3c(N)nc4cc(OCc5ccccc5)ccc4c3n21` [Example 7, (11S)-3-(Benzyloxy)-11-methyl-10,11-dihydro-8H-[1,4]oxazino[4′,3′:1,2]imidazo[4,5-c]quinolin-6-amine], the melting point lay within 218 to 220 °C.
`C[C@H]1COCc2nc3c(N)nc4cc(O)ccc4c3n21` [Example 8, (11S)-6-Amino-11-methyl-10,11-dihydro-8H-[1,4]oxazino[4′,3′:1,2]imidazo[4,5-c]quinolin-3-ol] gave a melting point above 250 °C.
In turn, `Nc1nc2ccccc2c2c1nc1n2[C@@H](c2ccccc2)COC1` [Example 9, (11S)-11-Phenyl-10,11-dihydro-8H-[1,4]oxazino[4′,3′:1,2]imidazo[4,5-c]quinolin-6-amine] displayed a melting point of 284 to 286 °C.
Under `Nc1nc2ccccc2c2c1nc1n2[C@@H](Cc2ccccc2)COC1` [Example 10, (11S)-11-Benzyl-10,11-dihydro-8H-[1,4]oxazino[4′,3′:1,2]imidazo[4,5-c]quinolin-6-amine] stands 170 to 177 °C; under `CC(C)(F)[C@H]1COCc2nc3c(N)nc4ccccc4c3n21` [Example 11, (11R)-11-(1-Fluoro-1-methylethyl)-10,11-dihydro-8H-[1,4]oxazino[4′,3′:1,2]imidazo[4,5-c]quinolin-6-amine], 242 to 244 °C.
